The results in this text go back to US20200408775A1, “APPARATUS AND METHOD FOR MULTIPLEXED PROTEIN QUANTIFICATION” (BIOMOTIF AB, priority 2018, published 2020).

Molecules are shown by their SMILES.

The test system of the assay is Human Colon Carcinoma Cells HCT116. Description: Proteome changes in protein abundance upon drug treatment, 3-channel pI-multiplexing LC MS/MS. In kind it is cell-based. The settings on record: 45 nM Methotrexate for 48 h vs 0.01% DMSO control, p<0.05, 570 proteins quantified, 3 biological replicates. How it is done:
A three-channel isoelectric point-based multiplexing was applied for the analysis of proteome changes in protein abundance upon drug treatment, using the following procedure:
Human Colon Carcinoma Cells HCT116 were cultured at 37° C. with 5% CO2 in high-glucose Dulbecco's Modified Eagle's Medium (DMEM, Thermo Fisher Scientific) supplemented with 10% fetal bovine serum (Gibco) and 1% penicillin/streptomycin (Gibco). The cells were treated for 48 h with 45 nM Methotrexate in 0.01% dimethyl sulfoxide (DMSO). As a control experiment, cells were treated with 0.01% DMSO. The medium containing the drug (or 0.01% DMSO for the control) was replaced each 24 h by fresh medium. A total of 3 control samples and 3 treated samples were produced.
Cells (1 million cells per replicate sample) were washed twice with PBS (1 mL) and resuspended in 300 μL of lysis buffer (3% SDC, 20 mM EPPS, pH 8.5). The total protein concentration was measured using the BCA protein assay kit (Pierce) in accordance with the manufacturer's protocol. […]
6. Samples were analyzed together within MaxQuant (1% FDR and match between runs) and Quanty quantification software (1% FDR). Isoelectric point calculations were in-silico calculated as described in Pirmoradian M et al 2014. Proteins containing at least 1 peptide on each pI-channel were selected for quantification.

For `CN(Cc1cnc2nc(N)nc(N)c2n1)c1ccc(C(=O)N[C@@H](CCC(=O)O)C(=O)O)cc1` [Methotrexate], the “number of proteins that demonstrated a statistical difference between the control and treated” value came out at 4.
